According to US8492397B2, “Aminopyridine derivatives having Aurora A selective inhibitory action” (Vertex Pharmaceuticals Incorporated, priority 2009, dated 2013):
pIC50: −log10 of the molar value.

How the values were obtained:
Aurora B = biological target: T1, Aurora B (Homo sapiens, UniProt Q96GD4); assay: Aurora B inhibitory action (33P-ATP Kemptide phosphorylation, filter assay); assay type: biochemical; conditions: His-tagged Aurora B, 100 μM Kemptide, 100 μM ATP, 30° C., 20 minutes
T1 construct: histidine tag (N); made in house; host or cells: Escherichia coli BL21-CodonPlus(DE3)-RIL
From the text: (§1) cDNA of Aurora B having histidine tag fused at the amino terminal was integrated into an expression vector, which was then highly expressed in Escherichia coli BL21-CodonPlus(DE3)-RIL cells. The Escherichia coli cells were recovered and solubilized, and then the histidine-tagged […] protein was adsorbed onto a nickel chelate column and eluted from the column with imidazole, The active fraction was desalted with a desalting column to give a pure enzyme.
For measurement of the activity of Aurora B, the substrate used was Kemptide (Leu-Arg-Arg-Ala-Ser-Leu-Gly) (SEQ.ID.NO.: 1), a synthetic peptide purchased from Sigma-Aldrich, Inc, [Certificate of analysis (Upstate, Inc.)].
Reaction was conducted by a partial modification of the method of activity measurement for Aurora A. The amount of the reaction liquid was 21.1 μL, and the composition of the reaction buffer (R2 buffer) was 50 mM Tris-hydrochloride buffer (pH 7.4)/15 mM magnesium acetate/0.2 mM ethylenediamine-N,N,N′,N′-tetraacetate (EDTA). To this, purified Aurora B, 100 μM of a substrate peptide, 100 μM of unlabeled adenosine triphosphate (ATP) and 1 μCi of [γ-^33P] labeled ATP (2,500 Ci/mmole or more) were added, and the mixture was reacted at 30° C. for 20 minutes. Then, 10 μL of 350 mM phosphate buffer was added to the reaction system to stop the reaction. The substrate peptide was adsorbed on a P81 paper filter 96-well plate and then washed with 130 mM phosphate buffer for several times. The radiation activity of the peptide was measured with a liquid scintillation counter. The [γ-^33P] labeled ATP was purchased from Amersham Biosciences Co., Ltd.

Aurora A = biological target: T2, Aurora A (Homo sapiens, UniProt O14965); assay: Aurora A inhibitory action (33P-ATP Kemptide phosphorylation, filter assay); assay type: biochemical; conditions: His-tagged Aurora A, 100 μM Kemptide, 20 μM ATP, 30° C., 20 minutes
T2 construct: histidine tag (N); made in house; host or cells: Escherichia coli BL21-CodonPlus(DE3)-RIL
T2 sequence (O14965 1-403): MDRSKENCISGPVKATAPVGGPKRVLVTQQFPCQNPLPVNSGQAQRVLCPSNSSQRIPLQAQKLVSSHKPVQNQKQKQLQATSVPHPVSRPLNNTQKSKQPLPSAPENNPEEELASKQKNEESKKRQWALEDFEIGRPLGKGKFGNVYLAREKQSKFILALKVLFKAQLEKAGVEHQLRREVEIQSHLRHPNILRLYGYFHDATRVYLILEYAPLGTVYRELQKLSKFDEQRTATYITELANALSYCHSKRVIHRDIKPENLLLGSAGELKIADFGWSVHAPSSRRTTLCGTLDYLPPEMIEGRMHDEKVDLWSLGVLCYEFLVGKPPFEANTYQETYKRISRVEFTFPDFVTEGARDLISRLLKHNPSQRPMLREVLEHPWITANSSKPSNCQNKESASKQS
From the text: as §1, with “Aurora A” for “Aurora B”, “with imidazole.” for “with imidazole,”
For measurement of the activity of Aurora A, the substrate used was Kemptide (Leu-Arg-Arg-Ala-Ser-Leu-Gly) (SEQ.ID.NO.: 1), a synthetic peptide purchased from Sigma-Aldrich, Inc. [Certificate of analysis (Upstate, Inc.)].
Reaction was conducted by a partial modification of a method by Upstate, Inc. [Kinase Profiler™ Assay Protocols]. The amount of the reaction liquid was 21.1 μL, and the composition of the reaction buffer (R2 buffer) was 50 mM Tris-hydrochloride buffer (pH 7.4)/15 mM magnesium acetate/0.2 μM ethylenediamine-N,N,N′,N′-tetraacetate (EDTA). To this, purified Aurora A, 100 μM of a substrate peptide, 20 μM of unlabeled adenosine triphosphate (ATP) and 0.5 μCi of [γ-^33P] labeled ATP (2,500 Ci/mmole or more) were added, and the mixture was reacted at 30° C. for 20 minutes. Then, 10 μL of 350 mM phosphate buffer was added to the reaction system to stop the reaction. The substrate peptide was adsorbed on a P81 paper filter 96-well plate and then washed with 130 mM phosphate buffer for several times. The radiation activity of the peptide was measured with a liquid scintillation counter. The [γ-^33P] labeled ATP was purchased from Amersham Biosciences Co., Ltd.
The compound to be tested was added to the reaction system such that a dilution series of the compound in dimethylsulfoxide was first prepared, and 1.1 μL of this solution was added. A control was provided by adding 1.1 μL of DMSO to the reaction system.

T1 sequence (Q96GD4 whole entry): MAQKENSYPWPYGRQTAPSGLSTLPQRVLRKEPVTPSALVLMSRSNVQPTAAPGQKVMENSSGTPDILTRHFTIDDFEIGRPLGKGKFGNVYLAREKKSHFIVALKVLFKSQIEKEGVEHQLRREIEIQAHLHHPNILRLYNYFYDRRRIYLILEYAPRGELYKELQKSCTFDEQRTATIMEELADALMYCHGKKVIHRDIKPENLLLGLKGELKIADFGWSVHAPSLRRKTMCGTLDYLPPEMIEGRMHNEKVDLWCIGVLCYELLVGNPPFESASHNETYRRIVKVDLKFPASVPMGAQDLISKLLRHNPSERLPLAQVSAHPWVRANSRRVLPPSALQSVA

| SMILES | pIC50 (Aurora B) | pIC50 (Aurora A) |
| --- | --- | --- |
| Cc1cc(Nc2cc[nH]n2)nc(N2CC(NC(=O)O[C@@H](C)C(F)(F)F)[C@H](C)C2)n1 (stereo in doubt) [Example 7, (2S)-1,1,1-trifluoropropan-2-yl{(3R,4R)-4-methyl-1-[4-methyl-6-(1H-pyrazol-3-ylamino)pyrimidin-2-yl]pyrrolidin-3-yl}carbamate] | 6.51 | 8.21 |
| Cc1cc(Nc2cc[nH]n2)nc(N2CC(NC(=O)OC(C)(C)C)[C@H](C)C2)n1 (stereo in doubt) [Example 9, tert-butyl {(3R,4R)-4-methyl-1-[4-methyl-6-(1H-pyrazol-3-ylamino)pyrimidin-2-yl]pyrrolidin-3-yl}carbamate] | 5.24 | 7.12 |
| Cc1cc(Nc2cc[nH]n2)nc(N2CC[C@H](NC(=O)O[C@@H](C)C(F)(F)F)C2)n1 [Example 1, (2S)-1,1,1-trifluoropropan-2-yl{(3S)-1-[4-methyl-6-(1H-pyrazol-3-ylamino)pyrimidin-2-yl]pyrrolidin-3-yl}carbamate] | 6.68 | 8.44 |
| Cc1cc(Nc2cc[nH]n2)nc(N2C[C@@H](O)[C@H](NC(=O)O[C@@H](C)C(F)(F)F)C2)n1 [Example 2, (2S)-1,1,1-trifluoropropan-2-yl{(3R,4R)-4-hydroxy-1-[4-methyl-6-(1H-pyrazol-3-ylamino)pyrimidin-2-yl]pyrrolidin-3-yl}carbamate] | 5.66 | 7.48 |
| Cc1cc(Nc2cc(C)[nH]n2)nc(N2CC[C@H](NC(=O)O[C@@H](C)C(F)(F)F)C2)n1 [Example 3, (2S)-1,1,1-trifluoropropan-2-yl {(3S)-1-[4-methyl-6-(5-methyl-1H-pyrazol-3-ylamino)pyrimidin-2-yl]pyrrolidin-3-yl}carbamate] | 6.72 | 8.19 |
| Cc1cc(Nc2cc[nH]n2)nc(N2CC[C@H](NC(=O)OC(C)(C)C(F)(F)F)C2)n1 [Example 4, 1,1,1-trifluoro-2-methylpropan-2-yl{(3S)-1-[4-methyl-6-(1H-pyrazol-3-ylamino)pyrimidin-2-yl]pyrrolidin-3-yl}carbamate] | 5.42 | 7.66 |
| Cc1cc(Nc2cc(C)[nH]n2)nc(N2CC[C@H](NC(=O)OC(C)(C)C)C2)n1 [Example 6, tert-butyl {(3S)-1-[4-methyl-6-(5-methyl-1H-pyrazol-3-ylamino)pyrimidin-2-yl]pyrrolidin-3-yl}carbamate] | 5.74 | 7.55 |
| CO[C@@H]1CN(c2nc(C)cc(Nc3cc[nH]n3)n2)C[C@H]1NC(=O)O[C@@H](C)C(F)(F)F [Example 8, (2S)-1,1,1-trifluoropropan-2-yl{(3R,4R)-4-methoxyl-1-[4-methyl-6-(1H-pyrazol-3-ylamino)pyrimidin-2-yl]pyrrolidin-3-yl}carbamate] | < 5.00 | 7.43 |
